Test results reported in patent US12479894B2, “Pea peptide with auxiliary hypoglycemic function and preparation method thereof” (CHINA NATIONAL RESEARCH INSTITUTE OF FOOD & FERMENTATION …, priority 2019, dated 2025).

Experiments:
Assay type in all cases: in vivo
Kunming mice [1] = experiment: Detection of glucose tolerance level (oral glucose 2 g/kg) in high-fat diet / streptozotocin diabetic mice; conditions: FIG. 13; last day, glucose 2 g/kg by gavage 60 min after treatment; AUC 0-120 min; pea peptides 1,600 mg/kg BW, metformin 185 mg/kg BW; versus model group
Description: (§1) Hypoglycemic functions of the pea peptide samples were evaluated by using the following method.
(§2) 110 Kunming mice were weighed and randomly divided into 11 groups in total: a blank group, a model group, a positive group (metformin 185 mg/kg BW), Example 1-low dose (800 mg/kg BW), Example 1-medium dose (1600 mg/kg BW), Example 1-high dose (3,200 mg/kg BW), Example 2 (1,600 mg/kg BW), Example 3 (1,600 mg/kg BW), Comparative Example 1 (,1600 mg/kg BW), Comparative Example 2 (1,600 mg/kg BW), and Comparative Example 3 (1,600 mg/kg BW), with 10 mice for each group. No any treatment was performed on the blank group; the remaining 10 groups were fed with high-fat diet for 30 days, and then intraperitoneally injected with streptozotocin to induce diabetes, for modeling; except for the blank group and the model group, the positive group was gavaged with metformin, and the experimental group was gavaged with corresponding pea peptide, the gavage was successively performed for 28 days, and the following indicators were detected:
b. Detection of Glucose Tolerance Level […]

Kunming mice [2] = experiment: Detection of serum insulin level in high-fat diet / streptozotocin diabetic mice; conditions: FIG. 15, last day after 28 days gavage, pea peptides 1,600 mg/kg BW, metformin 185 mg/kg BW, versus model group
Description: as §1, §2
c. Detection of Insulin Level
On the last day of the experiment, all mice were killed, blood samples were collected and centrifuged to obtain serum, serum insulin concentrations (μg/L) were detected, and serum insulin concentration was calculated for each group based on the average value of 10 data.

Kunming mice [3] = experiment: Detection of fasting blood glucose level in high-fat diet / streptozotocin diabetic mice; conditions: FIG. 11; gavage 28 days; pea peptides 1,600 mg/kg BW, metformin 185 mg/kg BW; AUC of days 1, 7, 14, 21, 28; versus model group
Description: as §1, §2
a. Detection of Fasting Blood Glucose Level
After modeling, blood samples were collected from tail tips of 11 groups of mice on days 1, 7, 14, 21 and 28, respectively, to determine concentration of fasting blood glucose, and an area under curve, AUC, was calculated for each group based on the average value of 10 data.

Q: What does the source list for `CN(C)C(=N)N=C(N)N` [positive group, metformin]?
A: blood glucose concentration (glucose tolerance capability) (Kunming mice [1]): significantly reduce the blood glucose concentration; insulin concentration (Kunming mice [2]): significantly improve the insulin concentrations; fasting blood glucose level (Kunming mice [3]): significantly reduced fasting blood glucose level
